Ten molecules from patent US8586611B2 (priority 2005, dated 2013) can be followed below.

Holding throughout (type): in vivo
Test [1] relates to Plasmopara viticola. As to the kind of experiment: Test B: grape downy mildew, spray 24 h after inoculation (disease rating, 100 = 100% disease control). As to conditions: spray 24 h after inoculation, compounds without asterisk (not 40 or 10 ppm). Put shortly: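 This is a curative spray test, applied 24 h after inoculation. Compounds in 50/50 acetone–water with 250 ppm Trem 014 surfactant were sprayed to run-off on P. viticola-infected seedlings, with 200 ppm equating to 500 g/ha. Plants were kept 5 days in a 20 °C growth chamber, then 24 h humid, and scored 0–100 for disease control relative to controls.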

In test [2] the test system is Phytophthora infestans. As to the kind of experiment: whole plant or invertebrate. As to conditions: tomato late blight; spray the day before inoculation; compounds without asterisk (not 40 or 10 ppm).
Test [3] deals with Phytophthora infestans. As to the kind of experiment: whole plant or invertebrate. To be noted: tomato late blight; spray 17 h after inoculation; compounds without asterisk (not 40 or 10 ppm).
Test [4] has as its system Pseudoperonospora cubensis. As to the kind of experiment: Test F: cucumber downy mildew, DMSO/acetone/water test suspension, spray the day before inoculation (disease rating, 100 = 100% disease control). As to conditions: DMSO/acetone/water suspension, spray the day before inoculation, compounds without asterisk. The source says: The test compounds were first dissolved in dimethyl sulfoxide (DMSO) in an amount equal to 4% of the final volume and then suspended at the desired concentration (in ppm) in acetone and purified water (30/70 mix by volume). The resulting test suspensions were then used in test F. Spraying a 250 ppm test suspension on the test plants was the equivalent of a rate of 250 g/ha.
The test suspension was sprayed on cucumber seedlings. The following day the seedlings were inoculated with a spore suspension of Pseudoperonospora cubensis (the causal agent of cucumber downy mildew) and incubated in a saturated atmosphere at 20° C. for 24 h, and then moved to a growth chamber at 20° C. for 6 days, after which disease ratings were made.
Results for Tests A-F are given in Table A. In the table, a rating of 100 indicates 100% disease control and a rating of 0 indicates no disease control (relative to the controls). A dash (-) indicates no test results.

Test [5] deals with Erysiphe graminis f. sp. tritici. As to the kind of experiment: Test E: wheat powdery mildew, spray the day before inoculation (disease rating, 100 = 100% disease control). To be noted: spray the day before inoculation, compounds without asterisk (not 40 or 10 ppm). Put shortly: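 Protective test: spores of E. graminis f. sp. tritici dusted on wheat seedlings one day after run-off spraying of test suspension (acetone/water with 250 ppm surfactant; 200 ppm = 500 g/ha). Ratings after 7 days in growth chamber at 20° C, 100 = full control, 0 = none, relative to controls.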

As to `Cc1nc(CC(=O)N2CCC(c3nc(C(=O)N(C)[C@H](C)c4ccccc4)cs3)CC2)c(C)s1` [compound 92], the “Test B disease rating (100 = 100% disease control, 0 = no disease control)” value in test [1] is 83%. In addition, the “Test C disease rating (100 = 100% disease control, 0 = no disease control)” value in test [2] was 100%. In addition, the “Test D disease rating (100 = 100% disease control, 0 = no disease control)” value in test [3] worked out at 100%. Besides, the “Test F disease rating (100 = 100% disease control, 0 = no disease control)” value in test [4] is given as 100%. Further, in test [5], the “Test E disease rating (100 = 100% disease control, 0 = no disease control)” value turned out to be 0%.
Take `Cc1ccc(C)c(CC(=O)N2CCC(c3nc(C(=O)N(C)C(C)c4ccccn4)cs3)CC2)c1` (centres unmarked) [compound 94]: the “Test B disease rating (100 = 100% disease control, 0 = no disease control)” value in test [1] is given as 0%. Besides, the “Test C disease rating (100 = 100% disease control, 0 = no disease control)” value in test [2] is listed as 100%. Further, in test [3], the “Test D disease rating (100 = 100% disease control, 0 = no disease control)” value is given as 100%. In test [4], the “Test F disease rating (100 = 100% disease control, 0 = no disease control)” value came to 93%. Besides, the “Test E disease rating (100 = 100% disease control, 0 = no disease control)” value in test [5] is 0%.
Regarding `Cc1ccc(C)c(CC(=O)N2CCC(c3nc(C(=O)N(C)C(C)c4cccnc4)cs3)CC2)c1` (centres unmarked) [compound 95], the “Test B disease rating (100 = 100% disease control, 0 = no disease control)” value in test [1] worked out at 0%. Also, the “Test C disease rating (100 = 100% disease control, 0 = no disease control)” value in test [2] came to 100%. The “Test D disease rating (100 = 100% disease control, 0 = no disease control)” value in test [3] was 83%. The “Test F disease rating (100 = 100% disease control, 0 = no disease control)” value in test [4] was 97%. In test [5], the “Test E disease rating (100 = 100% disease control, 0 = no disease control)” value was determined as 0%.
On to `CCc1cccc(CC(=O)N2CCC(c3nc(C(=O)N(C)[C@H](C)c4ccccc4)cs3)CC2)c1` [compound 119], for which, in test [1], the “Test B disease rating (100 = 100% disease control, 0 = no disease control)” value was 95%. Besides, the “Test C disease rating (100 = 100% disease control, 0 = no disease control)” value in test [2] was 99%. The “Test D disease rating (100 = 100% disease control, 0 = no disease control)” value in test [3] was found to be 33%. For the same molecule, in test [4], the “Test F disease rating (100 = 100% disease control, 0 = no disease control)” value turned out to be 100%. The “Test E disease rating (100 = 100% disease control, 0 = no disease control)” value in test [5] came out at 89%.
With `Cc1ccc(C(F)(F)F)cc1CC(=O)N1CCC(c2nc(C(=O)N(C)[C@H](C)c3ccccc3)cs2)CC1` [compound 124], in test [1], the “Test B disease rating (100 = 100% disease control, 0 = no disease control)” value is 100%. Further, the “Test C disease rating (100 = 100% disease control, 0 = no disease control)” value in test [2] was 100%. Further, in test [3], the “Test D disease rating (100 = 100% disease control, 0 = no disease control)” value is 0%. In addition, in test [4], the “Test F disease rating (100 = 100% disease control, 0 = no disease control)” value is on record as 90%. Besides, the “Test E disease rating (100 = 100% disease control, 0 = no disease control)” value in test [5] came to 71%.
`COc1ccc(C)cc1CC(=O)N1CCC(c2nc(C(=O)N(C)[C@H](C)c3ccccc3)cs2)CC1` [compound 125]: the “Test B disease rating (100 = 100% disease control, 0 = no disease control)” value in test [1] is 100%. Besides, in test [2], the “Test C disease rating (100 = 100% disease control, 0 = no disease control)” value is 100%. For the same molecule, the “Test D disease rating (100 = 100% disease control, 0 = no disease control)” value in test [3] amounted to 99%. For the same molecule, in test [4], the “Test F disease rating (100 = 100% disease control, 0 = no disease control)” value is listed as 100%. The “Test E disease rating (100 = 100% disease control, 0 = no disease control)” value in test [5] came to 94%.
In the case of `Cc1cc(C(F)(F)F)nn1CC(=O)N1CCC(c2nc(C(=O)N(C)[C@H](C)c3ncc(Cl)cc3Cl)cs2)CC1` [compound 143], the “Test B disease rating (100 = 100% disease control, 0 = no disease control)” value in test [1] came to 69%. For the same molecule, the “Test C disease rating (100 = 100% disease control, 0 = no disease control)” value in test [2] worked out at 100%. In addition, in test [3], the “Test D disease rating (100 = 100% disease control, 0 = no disease control)” value amounted to 99%. Also, in test [4], the “Test F disease rating (100 = 100% disease control, 0 = no disease control)” value was 50%. In test [5], the “Test E disease rating (100 = 100% disease control, 0 = no disease control)” value was determined as 0%.
On to `C[C@H](c1ccccc1)N(C)C(=O)c1coc(C2CCN(C(=O)Nc3cccc(C(F)(F)F)c3)CC2)n1` [compound 158], for which, in test [1], the “Test B disease rating (100 = 100% disease control, 0 = no disease control)” value was 9%. The “Test C disease rating (100 = 100% disease control, 0 = no disease control)” value in test [2] is 95%. In addition, the “Test D disease rating (100 = 100% disease control, 0 = no disease control)” value in test [3] is reported as 0%. For the same molecule, the “Test F disease rating (100 = 100% disease control, 0 = no disease control)” value in test [4] is reported as 90%. In addition, in test [5], the “Test E disease rating (100 = 100% disease control, 0 = no disease control)” value is listed as 0%.
As for `COc1ccc(C)cc1NC(=S)N1CCC(c2nc(C(=O)N(C)[C@H](C)c3ccccc3)cs2)CC1` [compound 159], the “Test B disease rating (100 = 100% disease control, 0 = no disease control)” value in test [1] was determined as 95%. Also, in test [2], the “Test C disease rating (100 = 100% disease control, 0 = no disease control)” value worked out at 99%. Further, in test [3], the “Test D disease rating (100 = 100% disease control, 0 = no disease control)” value amounted to 91%. Besides, the “Test F disease rating (100 = 100% disease control, 0 = no disease control)” value in test [4] is 93%. Moreover, the “Test E disease rating (100 = 100% disease control, 0 = no disease control)” value in test [5] amounted to 73%.
For `C[C@H](c1ccccc1)N(C)C(=O)c1csc(C2CCN(C(=S)Nc3cccc(C(F)(F)F)c3)CC2)n1` [compound 160], in test [1], the “Test B disease rating (100 = 100% disease control, 0 = no disease control)” value came out at 47%. Also, the “Test C disease rating (100 = 100% disease control, 0 = no disease control)” value in test [2] is given as 40%. The “Test D disease rating (100 = 100% disease control, 0 = no disease control)” value in test [3] is given as 0%. Also, the “Test F disease rating (100 = 100% disease control, 0 = no disease control)” value in test [4] was 50%. Besides, the “Test E disease rating (100 = 100% disease control, 0 = no disease control)” value in test [5] is listed as 0%.
